Source: patent US20240245805A1 (Orna Therapeutics, Inc., priority 2020, published 2024)
Read-outs that look alike come from different tables or passages of the source.

How the values were obtained:
[1] = cited from earlier work
1C1C7 cells [2] = experiment: 5′ UTR variants, GLuc in 1C1C7 cells; format: cell-based; conditions: CK IRES with 5′ UTR variants
Excerpt: This example describes modifications of circular RNAs by inserting 5′ UTR variants. […] 1C1C7 cells were transfected with the circular RNAs.

HEK293 cells = format: cell-based, human; conditions: circular RNA encoding Gluc with the listed IRES (UTR truncated to 675 nt) transfected into HEK293 cells; supernatant after 24 hours
1C1C7 cells [3] = experiment: GLuc luminescence and functional stability by IRES, 1C1C7 cells
[4] = Table 2, lipids of Formula (II)

## CCCCCCCCC(=O)N(CCCN(C)C)C(CCCCCCCCC(=O)OCC(CCCC)CCCC)CCCCCCCCC(=O)OCC(CCCC)CCCCCC (centres unmarked) [II-9]
[1]; [4]
  pKa: 6.27

## CCCCCCCCC(CCCC)COC(=O)CCCCCCCCC(CCCCCCCCC(=O)OCC(CCCC)CCCCCC)N(CCCN(C)C)C(=O)C(CC)CCCCC (centres unmarked) [II-35]
[1]; [4]
  pKa: 5.97

## CCCCCCCCC(CCCCCC)CCCOC(=O)CCCCCN(CCCCCC(=O)OCC(CCCCCC)CCCCCCCC)CCN(C)C (centres unmarked) [Lipid I-22]
[1]; Table 1, lipids of Formula I
  pKa: 6.53

## CCCCCCCCC(CCCCCC)CCCOC(=O)CCCCCN(CCCCCC(=O)OCC(CCCCCC)CCCCCCCC)CCN(C)CC (centres unmarked) [Lipid I-33]
[1]; Table 1, lipids of Formula I
  pKa: 6.27

## CCCCCCCCCCCCC(CCCCCCCCCC)C(=O)OCCCCCCN(CCCCCCOC(=O)C(CCCCCCCCCC)CCCCCCCCCCCC)CCN(C)C (centres unmarked) [Lipid I-39]
[1]; Table 1, lipids of Formula I
  pKa: 6.82

## UTR2: 5′ UTR variant: canonical Kozak sequence with "a 36-nucleotide unstructured/low GC spacer sequence" added (UTR2) (DNA AATAAGAGAGAAAAGAAGAGTAAGAAGAAATATAAGAGCCACC; 5' UTR segment within a circular RNA construct, further chemistry not given here)
1C1C7 cells [2]
  translation: more effective

## UTR3: 5′ UTR variant: "a higher-GC/structured spacer with a kozak sequence" (UTR3) (DNA CGAACTAGTATTCTTCTGGTCCCCACAGACTCAGAGAGAACCCGCCACC; 5' UTR segment within a circular RNA construct, further chemistry not given here)
1C1C7 cells [2]
  translation: did not show the same benefit

B1: EV C102 (nucleic acid, listed as Enterovirus sp.)
chain: CTTTGTACGCCTGTTTTACATCCCCTCCCCCACGTAACTTTAGAAGCAATTCAACAAGTTCAATAGAGGGGGTACAAACCAGTATCACCACGAACAAGCACTTCTGTTTCCCCGGTGATTTTACATAAGCTGTGCCCACGGCTGAAAGTGAATGATCCGTTACCCGCTCGAGTACTTCGAAAAGCCTAGTATCGCTTTGGGATCTTCGACGCGTTGCGCTCAGCACTCTACCCCGAGTGTAGCTTAGGCTGATGAGTCTGGGCATTCCCCATCGGCGACGATGGCCCAGGCTGCGTTGGCGGCCTACCCATGGCTAACGCCATGGGACGCTAGTTGTGAACAAGGTGTGAAGAGCCTATTGAGCTACTCGAGAGTCCTCCGGCCCCTGAATGCGGCTAATCCCAACCACGGATCAGGTGCCTCCAACCCAGGAGGTGGCCTGTCGTAACGCGCAAGTCTGTGGCGGAACCGACTACTTTGGGTGTCCGTGTTTCCTTTTATCTTTTAAATGGCTGCTTATGGTGACAATCATAGATTGTTATCATAAAGCGAATTGGATTGGCCATCCGGTGAAATACAAACACATTATTTACTTGTTTGTTGGATTTACTCCGCTCACACAGCTTACTCCTAAGATAATATTTATTGTATTGCTGGTAAGGAGACACTATTATA
modifications: lipid formulation
HEK293 cells
  Expression (luminescence from secreted Gluc protein): 8.85E+07

B2: EV 30 (nucleic acid, listed as Enterovirus sp.)
chain: AAGCAAGGCAAACCTGACCAATAGTAGGTGTGGCACACCAGCCGCATTTTGGTCAAGCACTTCTGTTTCCCCGGACCGAGTATCAATAAGCTGCTCACGCGGCTGAAGGAGAAACCGTTCGTTACCCGACCAGCTACTTCGAGAAACCTAGTAACACTATGAACGTTGCGGAGTGTTTCGTTCAGCACTTCCCCCGTGTAGATCAGGTCGATGAGTCACCGCATTCCTCACGGGTGACCGTGGCGGTGGCTGCGTTGGCGGCCTGCCTACGGGTTCGCCCGTAGGACGCTCTAATACCGACATGGTGTGAAGAGTCCATTGAGCTAGCTGGTAGTCCTCCGGCCCCTGAATGCGGCTAATCCTAACTGCGGAGCAGGTGCTCACAGACCAGTGAGTAGCCTGTCGTAACGGGCAACTCTGCAGCGGAACCGACTACTTTGGGTGTTTTTCCTTTTTTCTTCTCTTATATTGGCTGCTTATGGTGACAATTAAAGAATTGTTACCATATAGCTATTGGATTGGCCATCCGGTGACGAGCAGAGCCATTGTTTACCTCTTTGTTGGATTTGTACCTTTGAACCACAAAGTCTTGAATACCATTCATCTCATTTTAAAGTTCAACTCAGCTAAAAGAAA
modifications: lipid formulation
HEK293 cells
  Expression (luminescence from secreted Gluc protein): 5.48E+06

B3: PSIV (2x mut for Xbal) (nucleic acid)
DNA: GCAAAATGGGTACGTAGTTAACCACTGCGTATCAGGATTGCAGGCCACGAAGGGTATTTGCATATCTTTCTATGCGGTATTACGGCTTAAAACCCGTTGTATCTTGTTGTTTGACTGCCTGTATCACTAGTGGCCATTTTATTTAGGTTAGAGACCCCTGATAGTAGGAGAGTTACAAACTCTTTAAAAATTGTTGACCCCGGAAAAGATGGTGACCCCTGTAAGTAGTTGATCAAGAAGATCTATGCGCTGGCATAGTAATCCAGTGTTTCCTGTTTTAGGATGACCTCTGAAAGTAGATGACCGTGGAAAGTCACGTAGTGCCCCAATAAGCACGTTTGGGCAGCGTGCGCTATCACAAGGCTTGATCTCCGAGGAGCCCCTTGTTTTAGCTGGCTGGAAGCCAATGATCTTAAGTAGATAAGTGCTGTTGCTTGTAGTTCAACAGAAAGCTTTGAGTACGTCTTTCTTGCGAGAAAGAACACATGCATTCTTATGCTCTCAATTCTATTATTTTTATTTTGGGCGAAAGGAAAGCTCTCACGCGAGTACGAATAGCCAACCCTTTAT
modifications: lipid formulation
HEK293 cells
  Expression (luminescence from secreted Gluc protein): 9.70E+04

B4: Salivirus A SZ-1 (nucleic acid)
DNA: TCTGTCCTCACCCCATCTTCCCTTCTTTCCTGCACCGTTACGCTTACTCGCATGTGCATTGAGTGGTGCACGTGCTTGAACAAACAGCTACACTCACATGGGGGCGGGTTTTCCCGCCCTGCGGCCTCTCGCGAGGCCCACCCCTCCCCTTCCTCCCATAACTACAGTGCTTTGGTAGGTAAGCATCCTGATCCCCCGCGGAAGCTGCTCACGTGGCAACTGTGGGGACCCAGACAGGTTATCAAAGGCACCCGGTCTTTCCGCCTTCAGGAGTATCCCTGCTAGTGAATTCTAGTAGGGCTCTGCTTGGTGCCAACCTCCCCCAAATGCGCGCTGCGGGAGTGCTCTTCCCCAACTCACCCTAGTATCCTCTCATGTGTGTGCTTGGTCAGCATATCTGAGACGATGTTCCGCTGTCCCAGACCAGTCCAGTAATGGACGGGCCAGTGTGCGTAGTCGTCTTCCGGCTTGTCCGGCGCATGTTTGGTGAACCGGTGGGGTAAGGTTGGTGTGCCCAACGCCCGTACTTTGGTGATACCTCAAGACCACCCAGGAATGCCAGGGAGGTACCCCGCTTCACAGCGGGATCTGACCCTGGGCTAATTGTCTACGGTGGTTCTTCTTGCTTCCACTTCTTTCTACTGTTCATG
modifications: source: /note="Description of Unknown: Salivirus A sequence"
1C1C7 cells [3]
  luminescence at 24 hours: produced high luminescence
